In patent US7384931B2, “Constrained compounds as CGRP-receptor antagonists” (Bristol-Myers Squibb Company, priority 2004, dated 2008) one finds IC50 data, which are given here for 13 compounds.

In assay [1] the target is T1, CGRP receptor (Homo sapiens, UniProt O60894+Q16602). Put plainly: Cyclic AMP functional antagonism assay in SK-N-MC cells. It is filed as cell-based. Set-up: SK—N-MC cells that endogenously express the human CGRP receptor; endogenous in cells; host or cells: SK-N-MC cells. Conditions: inhibition of 0.3 nM CGRP-induced cyclic AMP formation, 15 min pre-incubation, read-out: cAMP Function IC50. The protocol:
Cyclic AMP Functional Antagonism Assay. Antagonism of the compounds of invention was determined by measuring the formation of cyclic AMP (adenosine 3′5′-cyclic monophosphate) in SK—N-MC cells that endogenously express the human CGRP receptor. CGRP receptor complex is coupled with Gs protein and CGRP binding to this complex leads to the cyclic AMP production via Gs—dependent activation of an adenylate cyclase (Juaneda C et al., TiPS, 2000; 21:432-438; incorporated by reference herein). Consequently, CGRP receptor antagonists inhibit CGRP—induced cyclic AMP formation in SK—N-MC cells (Doods H et al., Br J Pharmacol, 2000; 129(3):420-423); incorporated by reference herein). For cyclic AMP measurements SK—N-MC cells were incubated with 0.3 nM CGRP alone or in the presence of various concentrations of the compounds of invention for 30 min at room temperature. Compounds of invention were pre-incubated with SK—N-MC cells for 15 min before the addition of CGRP to allow receptor occupancy (Edvinsson et al., Eur J Pharmacol, 2001, 415:39-44; incorporated by reference herein). Cyclic AMP was extracted using the lysis reagent and its concentration was determined by radioimmunoassay using RPA559 cAMP SPA Direct Screening Assay Kit (Amersham Pharmacia Biotech). IC50 values were calculated using Excel fit.

Assay [2] addresses T1, CGRP receptor. Put plainly: CGRP radioligand binding assay ([125I]-CGRP displacement, SK-N-MC homogenate). Details: endogenous in cells; host or cells: SK-N-MC cells (homogenate/membrane pellet). Conditions: displacement of [125I]-CGRP, room temperature 2 h. In short, it runs like this:
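SK-N-MC cell homogenate (5 μg/well) was incubated 2 h at room temperature with [125I]-CGRP (diluted to 60 pM before addition) in 50 mM Tris-Cl pH 7.5, 5 mM MgCl2, 0.005% Triton X-100 plus protease inhibitors. Bound radioactivity was collected by filtration; 1 μM beta-CGRP defined non-specific binding. IC50 is 50% radioligand displacement.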
(Loss of bound radioactivity is the signal in a displacement assay; it reports binding, not function.)

T1 sequence (Q16602 23-461): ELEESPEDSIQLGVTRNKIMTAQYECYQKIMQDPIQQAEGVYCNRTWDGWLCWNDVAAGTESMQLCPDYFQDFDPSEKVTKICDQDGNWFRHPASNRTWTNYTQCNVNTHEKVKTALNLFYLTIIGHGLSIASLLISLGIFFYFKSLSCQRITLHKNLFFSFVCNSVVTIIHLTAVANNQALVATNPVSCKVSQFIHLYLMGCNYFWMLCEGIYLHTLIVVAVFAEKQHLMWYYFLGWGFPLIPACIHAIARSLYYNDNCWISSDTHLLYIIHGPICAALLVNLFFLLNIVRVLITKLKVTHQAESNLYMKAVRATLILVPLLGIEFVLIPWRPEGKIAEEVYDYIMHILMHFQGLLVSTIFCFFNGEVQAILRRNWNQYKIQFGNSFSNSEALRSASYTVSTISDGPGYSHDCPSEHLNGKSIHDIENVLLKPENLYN
T1 sequence (O60894 27-148): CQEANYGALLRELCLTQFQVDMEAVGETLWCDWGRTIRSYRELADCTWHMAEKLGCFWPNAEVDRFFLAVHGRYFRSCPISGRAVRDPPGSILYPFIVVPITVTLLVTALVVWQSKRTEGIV

Regarding `O=C(N[C@@H]1Cc2cc(Cl)c3[nH]ncc3c2CN(Cc2ccccc2)C1=O)N1CCC(N2Cc3ccccc3NC2=O)CC1` [Example 12, 4-(2-Oxo-1,4-dihydro-2H-quinazolin-3-yl)-piperidine-1-carboxylic acid (9-benzyl-4-chloro-8-oxo-3,6,7,8,9,10-hexahydro-2,3,9-triaza-(R)-cyclohepta[e]inden-7-yl)-amide], the IC50 in assay [1] and in assay [2] was 0.0001 to 0.01 µM throughout.
On to `CC(C)(C)CN1Cc2c(cc(Cl)c3[nH]ncc23)C[C@@H](CC(=O)N2CCC(c3cc4cccc(F)c4[nH]c3=O)CC2)C1=O` [Example 47, (S)-4-Chloro-7-(2-(4-(8-fluoro-2-oxo-1,2-dihydroquinolin-3-yl)piperidin-1-yl)-2-oxoethyl)-9-neopentyl-6,7,9,10-tetrahydroazepino[3,4-e]indazol-8(3H)-one], for which the 50% inhibitory concentration (IC50) in assay [1] and in assay [2] was 0.01 to 0.1 µM in each case.
On to `CC(C)(C)CN1Cc2c(cc(Cl)c3[nH]ncc23)C[C@@H](CC(=O)N2CCC(n3cc(-c4ccccc4)[nH]c3=O)CC2)C1=O` [Example 44, (S)-4-Chloro-9-neopentyl-7-(2-oxo-2-(4-(2-oxo-4-phenyl-2,3-dihydroimidazol-1-yl)piperidin-1-yl)ethyl)-6,7,9,10-tetrahydroazepino[3,4-e]indazol-8(3H)-one], for which the IC50 in assay [1] and in assay [2] was 0.0001 to 0.01 µM each time.
Take `O=C(C[C@@H]1Cc2cc(Cl)c3[nH]ncc3c2CN(Cc2ccncc2)C1=O)N1CCC(n2cc(-c3ccccc3)[nH]c2=O)CC1` [Example 53, (S)-4-Chloro-7-(2-oxo-2-(4-(2-oxo-4-phenyl-2,3-dihydroimidazol-1-yl)piperidin-1-yl)ethyl)-9-(pyridin-4-ylmethyl)-6,7,9,10-tetrahydroazepino[3,4-e]indazol-8(3H)-one]: the half-maximal inhibitory concentration (IC50) in assay [1] and in assay [2] was 0.0001 to 0.01 µM each time.
Consider `C[C@@H](c1ccccc1)N1Cc2c(ccc3[nH]ncc23)C[C@@H](NC(=O)N2CCC(N3Cc4ccccc4NC3=O)CC2)C1=O` [Example 10, 4-(2-Oxo-1,4-dihydro-2H-quinazolin-3-yl)-piperidine-1-carboxylic acid [8-oxo-9-(1-(S)-phenyl-ethyl)-3,6,7,8,9,10-hexahydro-2,3,9-triaza-(R)-cyclohepta[e]inden-7-yl]-amide], for which the IC50 in assay [1] and in assay [2] was 0.01 to 0.1 µM throughout.
As for `CC(C)(C)CN1Cc2c(cc(Cl)c3[nH]ncc23)C[C@@H](CC(=O)N2CCC(N3Cc4ccccc4CC3=O)CC2)C1=O` [Example 41, (S)-4-Chloro-9-neopentyl-7-(2-oxo-2-(4-(3-oxo-3,4-dihydroisoquinolin-2(1H)-yl)piperidin-1-yl)ethyl)-6,7,9,10-tetrahydroazepino[3,4-e]indazol-8(3H)-one], the IC50 in assay [1] and in assay [2] was 0.0001 to 0.01 µM throughout.
Turning to `CC(C)(C)CN1Cc2c(cc(Cl)c3[nH]ncc23)C[C@@H](CC(=O)N2CCC(N3Cc4ccccc4NC3=O)CC2)C1=O` [Example 21, 4-Chloro-9-(2,2-dimethyl-propyl)-7-(S)-{2-oxo-2-[4-(2-oxo-1,4-dihydro-2H-quinazolin-3-yl)-piperidin-1-yl]-ethyl}-6,7,9,10-tetrahydro-3H-2,3,9-triaza-cyclohepta[e]inden-8-one], the IC50 in assay [1] and in assay [2] was 0.0001 to 0.01 µM throughout.
On to `CC(C)(C)CCN1Cc2c(ccc3[nH]ncc23)C[C@@H](NC(=O)N2CCC(N3Cc4ccccc4NC3=O)CC2)C1=O` [Example 16, 4-(2-Oxo-1,4-dihydro-2H-quinazolin-3-yl)-piperidine-1-carboxylic acid [9-(3,3-dimethyl-butyl)-8-oxo-3,6,7,8,9,10-hexahydro-2,3,9-triaza-(R)-cyclohepta[e]inden-7-yl]-amide], for which the half-inhibitory concentration (IC50) in assay [1] and in assay [2] was 0.0001 to 0.01 µM in each case.
As to `O=C(N[C@@H]1Cc2ccc3[nH]ncc3c2CN(Cc2ccccc2)C1=O)N1CCC(N2Cc3ccccc3NC2=O)CC1` [Example 1, 4-(2-Oxo-1,4-dihydro-2H-quinazolin-3-yl)-piperidine-1-carboxylic acid (9-benzyl-8-oxo-3,6,7,8,9,10-hexahydro-2,3,9-triaza-(R)-cyclohepta[e]inden-7-yl)-amide], the half-inhibitory concentration (IC50) in assay [1] and in assay [2] was 0.01 to 0.1 µM in each case.
`C[C@H](c1ccccc1)N1Cc2c(ccc3[nH]ncc23)C[C@@H](NC(=O)N2CCC(N3Cc4ccccc4NC3=O)CC2)C1=O` [Example 11, 4-(2-Oxo-1,4-dihydro-2H-quinazolin-3-yl)-piperidine-1-carboxylic acid [8-oxo-9-(1-(R)-phenyl-ethyl)-3,6,7,8,9,10-hexahydro-2,3,9-triaza-(R)-cyclohepta[e]inden-7-yl]-amide]: the half-inhibitory concentration (IC50) in assay [1] and in assay [2] was 0.01 to 0.1 µM each time.
On to `O=C(C[C@@H]1Cc2cc(Cl)c3[nH]ncc3c2CN(Cc2ccncc2)C1=O)N1CCC(N2Cc3cccc(F)c3NC2=O)CC1` [Example 50, (S)-4-Chloro-7-(2-(4-(8-fluoro-2-oxo-1,2-dihydroquinazolin-3(4H)-yl)piperidin-1-yl)-2-oxoethyl)-9-(pyridin-4-ylmethyl)-6,7,9,10-tetrahydroazepino[3,4-e]indazol-8(3H)-one], for which the IC50 in assay [1] and in assay [2] was 0.0001 to 0.01 µM in each case.
Consider `O=C(C[C@@H]1Cc2cc(Cl)c3[nH]ncc3c2CN(Cc2ccncc2)C1=O)N1CCC(c2cc3ccccc3cn2)CC1` [Example 85, (S)-4-chloro-7-(2-(4-(isoquinolin-3-yl)piperidin-1-yl)-2-oxoethyl)-9-(pyridin-4-ylmethyl)-6,7,9,10-tetrahydroazepino[3,4-e]indazol-8(3H)-one], for which the half-maximal inhibitory concentration (IC50) in assay [1] and in assay [2] was 0.01 to 0.1 µM each time.
For the compound `CC(C)(C)CN1Cc2c(cc(Cl)c3[nH]ncc23)C[C@@H](CC(=O)N2CCC(c3cc4ccccc4[nH]c3=O)CC2)C1=O` [Example 43, (S)-4-Chloro-9-neopentyl-7-(2-oxo-2-(4-(2-oxo-1,2-dihydroquinolin-3-yl)piperidin-1-yl)ethyl)-6,7,9,10-tetrahydroazepino[3,4-e]indazol-8(3H)-one], the IC50 in assay [1] and in assay [2] was 0.0001 to 0.01 µM throughout.

The term IC50 denotes the midpoint of a concentration-inhibition curve.
